ChEMBL document CHEMBL1649223, “Efficacy of albaconazole against Candida albicans in a vaginitis model” (2009)
Values after ≈ are worked out from the molar mass of the structure shown.

What was measured:
Type in all cases: functional
Candida albicans [1] = experiment: Antifungal activity against Candida albicans isolate 03-2718 infected BALB/c mouse vaginitis model assessed as reduction in fungal load in vagina at 20 mg/kg, administered through oral gavage twice daily for 5 days measured on day 6 post inoculation
Candida albicans [2] = experiment: Antifungal activity against Candida albicans isolate 03-2718 infected BALB/c mouse vaginitis model assessed as reduction in fungal load in vagina at 20 mg/kg, administered through oral gavage once daily for 5 days measured on day 6 post inoculation
Candida albicans [3] = experiment: Antifungal activity against Candida albicans isolate 03-2718 infected BALB/c mouse vaginitis model assessed as reduction in fungal load in vagina at 20 mg/kg, administered through oral gavage twice daily for 5 days measured on day 1 post inoculation
Candida albicans [4] = experiment: Antifungal activity against Candida albicans isolate 03-2718 infected BALB/c mouse vaginitis model assessed as reduction in fungal load in vagina at 20 mg/kg, administered through oral gavage once daily for 5 days measured on day 1 post inoculation
Candida albicans [5] = experiment: Antifungal activity against Candida albicans isolate 03-2718 infected BALB/c mouse vaginitis model assessed as reduction in fungal load in vagina at 40 mg/kg, administered through oral gavage twice daily for 5 days measured on day 6 post inoculation
Candida albicans [6] = experiment: Antifungal activity against Candida albicans isolate 03-2718 infected BALB/c mouse vaginitis model assessed as reduction in fungal load in vagina at 40 mg/kg, administered through oral gavage once daily for 5 days measured on day 6 post inoculation
Candida albicans [7] = experiment: Antifungal activity against Candida albicans isolate 03-2718 infected BALB/c mouse vaginitis model assessed as reduction in fungal load in vagina at 10 mg/kg, administered through oral gavage twice daily for 5 days measured on day 6 post inoculation
Candida albicans [8] = experiment: Antifungal activity against Candida albicans isolate 03-2718 infected BALB/c mouse vaginitis model assessed as reduction in fungal load in vagina at 10 mg/kg, administered through oral gavage once daily for 5 days measured on day 6 post inoculation
Candida albicans [9] = experiment: Antifungal activity against Candida albicans isolate 03-2718 infected BALB/c mouse vaginitis model assessed as reduction in fungal load in vagina at 5 mg/kg, administered through oral gavage twice daily for 5 days measured on day 6 post inoculation
Candida albicans [10] = experiment: Antifungal activity against Candida albicans isolate 03-2718 infected BALB/c mouse vaginitis model assessed as reduction in fungal load in vagina at 5 mg/kg, administered through oral gavage once daily for 5 days measured on day 6 post inoculation
Candida albicans [11] = experiment: Antifungal activity against Candida albicans isolate 03-2718 infected BALB/c mouse vaginitis model assessed as reduction in fungal load in vagina at 40 mg/kg, administered through oral gavage twice daily for 5 days measured on day 1 post inoculation
Candida albicans [12] = experiment: Antifungal activity against Candida albicans isolate 03-2718 infected BALB/c mouse vaginitis model assessed as reduction in fungal load in vagina at 40 mg/kg, administered through oral gavage once daily for 5 days measured on day 1 post inoculation
Candida albicans [13] = experiment: Antifungal activity against Candida albicans isolate 03-2718 infected BALB/c mouse vaginitis model assessed as reduction in fungal load in vagina at 10 mg/kg, administered through oral gavage twice daily for 5 days measured on day 1 post inoculation
Candida albicans [14] = experiment: Antifungal activity against Candida albicans isolate 03-2718 infected BALB/c mouse vaginitis model assessed as reduction in fungal load in vagina at 10 mg/kg, administered through oral gavage once daily for 5 days measured on day 1 post inoculation
Candida albicans [15] = experiment: Antifungal activity against Candida albicans isolate 03-2718 infected BALB/c mouse vaginitis model assessed as reduction in fungal load in vagina at 5 mg/kg, administered through oral gavage twice daily for 5 days measured on day 1 post inoculation
Candida albicans [16] = experiment: Antifungal activity against Candida albicans isolate 03-2718 infected BALB/c mouse vaginitis model assessed as reduction in fungal load in vagina at 5 mg/kg, administered through oral gavage once daily for 5 days measured on day 1 post inoculation
Candida albicans [17] = experiment: Antifungal activity against Candida albicans isolate 03-2718 after 48 hrs; conditions: isolate 03-2718, 48 h

Row | SMILES | log10cfu (Candida albicans [1]) | log10cfu (Candida albicans [2]) | log10cfu (Candida albicans [3]) | log10cfu (Candida albicans [4]) | log10cfu (Candida albicans [5]) | log10cfu (Candida albicans [6]) | log10cfu (Candida albicans [7]) | log10cfu (Candida albicans [8]) | log10cfu (Candida albicans [9]) | log10cfu (Candida albicans [10]) | log10cfu (Candida albicans [11]) | log10cfu (Candida albicans [12]) | log10cfu (Candida albicans [13]) | log10cfu (Candida albicans [14]) | log10cfu (Candida albicans [15]) | log10cfu (Candida albicans [16]) | MIC (Candida albicans [17]) [mg/L]
1 | OC(Cn1cncn1)(Cn1cncn1)c1ccc(F)cc1F [FLUCONAZOLE] | 3.74 | 4.51 | 5.9 | 5.51 | – | – | – | – | – | – | – | – | – | – | – | – | –
2 | C[C@@H](n1cnc2cc(Cl)ccc2c1=O)[C@](O)(Cn1cncn1)c1ccc(F)cc1F [ALBACONAZOLE] | 3.34 | 3.81 | 5.48 | 5.13 | 2.24 | 3.13 | 3.83 | 4.33 | 4.82 | 4.99 | 5.79 | 5.62 | 5.43 | 5.07 | 5.46 | 5.06 | 0.5 (≈ 1.16 µM)
